Laboratory results published in ChEMBL document CHEMBL5038625, “Application of the dual-tail approach for the design and synthesis of novel Thiopyrimidine-Benzenesulfonamide hybrids as selective carbonic anhydrase inhibitors” (Eur J Med Chem, 2022).
Each block holds one compound with its values, some of them ahead of it.

Key:
CCRF-CEM = experiment: Antiproliferative activity against human CCRF-CEM cells assessed as cell growth inhibition at 10 uM incubated for 24 hrs by sulforhodamine B assay; format: functional; details: read-out: GI
UO-31 = experiment: Antiproliferative activity against human UO-31 cells assessed as cell growth inhibition at 10 uM incubated for 24 hrs by sulforhodamine B assay; format: functional; details: read-out: GI
Carbonic anhydrase 1 = Carbonic anhydrase 1 (Homo sapiens, UniProt P00915); experiment: Inhibition of human CA1 preincubated for 15 mins by phenol red dye based stopped flow CO2 hydration assay
SR = experiment: Antiproliferative activity against human SR cells assessed as cell growth inhibition at 10 uM incubated for 24 hrs by sulforhodamine B assay; format: functional; details: read-out: GI
Carbonic anhydrase 9 = Carbonic anhydrase 9 (Homo sapiens, UniProt Q16790); experiment: Inhibition of human CA9 preincubated for 15 mins by phenol red dye based stopped flow CO2 hydration assay
HL-60 = experiment: Antiproliferative activity against human HL-60 cells assessed as cell growth inhibition at 10 uM incubated for 24 hrs by sulforhodamine B assay; format: functional; details: read-out: GI
CAKI-1 = experiment: Antiproliferative activity against human CAKI-1 cells assessed as cell growth inhibition at 10 uM incubated for 24 hrs by sulforhodamine B assay; format: functional; details: read-out: GI
UACC-62 = experiment: Antiproliferative activity against human UACC-62 cells assessed as cell growth inhibition at 10 uM incubated for 24 hrs by sulforhodamine B assay; format: functional; details: read-out: GI
HCT-15 = experiment: Antiproliferative activity against human HCT-15 cells assessed as cell growth inhibition at 10 uM incubated for 24 hrs by sulforhodamine B assay; format: functional; details: read-out: GI
K562 = experiment: Antiproliferative activity against human K562 cells assessed as cell growth inhibition at 10 uM incubated for 24 hrs by sulforhodamine B assay; format: functional; details: read-out: GI
ACHN = experiment: Antiproliferative activity against human ACHN cells assessed as cell growth inhibition at 10 uM incubated for 24 hrs by sulforhodamine B assay; format: functional; details: read-out: GI
NCI-H460 = experiment: Antiproliferative activity against human NCI-H460 cells assessed as cell growth inhibition at 10 uM incubated for 24 hrs by sulforhodamine B assay; format: functional; details: read-out: GI
A498 = experiment: Antiproliferative activity against human A498 cells assessed as cell growth inhibition at 10 uM incubated for 24 hrs by sulforhodamine B assay; format: functional; details: read-out: GI
SW-620 = experiment: Antiproliferative activity against human SW-620 cells assessed as cell growth inhibition at 10 uM incubated for 24 hrs by sulforhodamine B assay; format: functional; details: read-out: GI
Carbonic anhydrase 2 = Carbonic anhydrase 2 (Homo sapiens, UniProt P00918); experiment: Inhibition of human CA2 preincubated for 15 mins by phenol red dye based stopped flow CO2 hydration assay
LOX IMVI = experiment: Antiproliferative activity against human LOX IMVI cells assessed as cell growth inhibition at 10 uM incubated for 24 hrs by sulforhodamine B assay; format: functional; details: read-out: GI
MOLT-4 = experiment: Antiproliferative activity against human MOLT-4 cells assessed as cell growth inhibition at 10 uM incubated for 24 hrs by sulforhodamine B assay; format: functional; details: read-out: GI
SNB-75 = experiment: Antiproliferative activity against human SNB-75 cells assessed as cell growth inhibition at 10 uM incubated for 24 hrs by sulforhodamine B assay; format: functional; details: read-out: GI
MCF7 [1] = experiment: Antiproliferative activity against human MCF7 cells assessed as reduction in cell viability incubated for 24 hrs by sulforhodamine B assay; format: functional, cell-based; details: MCF7, 24 h
MDA-MB-231 [2] = experiment: Antiproliferative activity against human MDA-MB-231 cells assessed as reduction in cell viability incubated for 24 hrs by sulforhodamine B assay; format: functional, cell-based; details: MDA-MB-231, 24 h
T47D [3] = experiment: Antiproliferative activity against human T47D cells assessed as reduction in cell viability incubated for 24 hrs by sulforhodamine B assay; format: functional, cell-based
RXF 393 = experiment: Antiproliferative activity against human RXF 393 cells assessed as cell growth inhibition at 10 uM incubated for 24 hrs by sulforhodamine B assay; format: functional; details: read-out: GI
NCI-H23 = experiment: Antiproliferative activity against human NCI-H23 cells assessed as cell growth inhibition at 10 uM incubated for 24 hrs by sulforhodamine B assay; format: functional; details: read-out: GI
HOP-92 = experiment: Antiproliferative activity against human HOP-92 cells assessed as cell growth inhibition at 10 uM incubated for 24 hrs by sulforhodamine B assay; format: functional; details: read-out: GI
SF-539 = experiment: Antiproliferative activity against human SF-539 cells assessed as cell growth inhibition at 10 uM incubated for 24 hrs by sulforhodamine B assay; format: functional; details: read-out: GI
MCF7 [4] = experiment: Antiproliferative activity against human MCF7 cells assessed as cell growth inhibition at 10 uM incubated for 24 hrs by sulforhodamine B assay; format: functional; details: read-out: GI
PC-3 = experiment: Antiproliferative activity against human PC-3 cells assessed as cell growth inhibition at 10 uM incubated for 24 hrs by sulforhodamine B assay; format: functional; details: read-out: GI
MDA-MB-231 [5] = experiment: Antiproliferative activity against human MDA-MB-231 cells assessed as cell growth inhibition at 10 uM incubated for 24 hrs by sulforhodamine B assay; format: functional; details: read-out: GI
SN12C = experiment: Antiproliferative activity against human SN12C cells assessed as cell growth inhibition at 10 uM incubated for 24 hrs by sulforhodamine B assay; format: functional; details: read-out: GI
NCI-H226 = experiment: Antiproliferative activity against human NCI-H226 cells assessed as cell growth inhibition at 10 uM incubated for 24 hrs by sulforhodamine B assay; format: functional; details: read-out: GI
T47D [6] = experiment: Antiproliferative activity against human T47D cells assessed as cell growth inhibition at 10 uM incubated for 24 hrs by sulforhodamine B assay; format: functional; details: read-out: GI
HCT-116 = experiment: Antiproliferative activity against human HCT-116 cells assessed as cell growth inhibition at 10 uM incubated for 24 hrs by sulforhodamine B assay; format: functional; details: read-out: GI

Carbonic anhydrase 1, sequence (P00915 whole entry): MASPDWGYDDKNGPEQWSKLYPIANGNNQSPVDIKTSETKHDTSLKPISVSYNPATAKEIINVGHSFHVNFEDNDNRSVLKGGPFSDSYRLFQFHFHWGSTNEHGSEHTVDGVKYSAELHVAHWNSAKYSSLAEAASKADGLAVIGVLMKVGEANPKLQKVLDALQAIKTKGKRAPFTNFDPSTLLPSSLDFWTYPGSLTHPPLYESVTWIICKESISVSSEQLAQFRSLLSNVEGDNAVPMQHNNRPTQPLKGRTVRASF

SMILES: COc1ccc(C(=O)CSc2nc(Nc3ccc(S(N)(=O)=O)cc3)c(C#N)c(-c3ccc(C)cc3)n2)cc1
Ki (Carbonic anhydrase 9): 8.71 µM

SMILES: Cc1ccc(-c2nc(SCC(=O)c3ccccc3)nc(Nc3cccc(S(N)(=O)=O)c3)c2C#N)cc1
inhibition of growth at 10 µM (RXF 393): 12.6% | inhibition of growth at 10 µM (UO-31): 24.4% | Ki (Carbonic anhydrase 1): > 20 µM | inhibition of growth at 10 µM (NCI-H23): 5.21% | inhibition of growth at 10 µM (SR): 7.6% | inhibition of growth at 10 µM (HOP-92): 65.2% | inhibition of growth at 10 µM (SF-539): 14.1% | Ki (Carbonic anhydrase 9): 7.64 µM | inhibition of growth at 10 µM (CAKI-1): 13.6% | inhibition of growth at 10 µM (MCF7 [4]): 11.9% | inhibition of growth at 10 µM (HCT-15): 5.35% | inhibition of growth at 10 µM (PC-3): 6.2% | Ki (Carbonic anhydrase 2): > 20 µM | inhibition of growth at 10 µM (LOX IMVI): 11.3%

SMILES: COc1ccc(C(=O)CSc2nc(Nc3ccc(S(N)(=O)=O)cc3)c(C#N)c(-c3cc(OC)ccc3OC)n2)cc1
Ki (Carbonic anhydrase 1): > 20 µM | Ki (Carbonic anhydrase 9): 8.93 µM

SMILES: Cc1ccc(-c2nc(SCC(=O)c3ccc(Br)cc3)nc(Nc3cccc(S(N)(=O)=O)c3)c2C#N)cc1
inhibition of growth at 10 µM (RXF 393): 17.6% | inhibition of growth at 10 µM (CCRF-CEM): 6.1% | inhibition of growth at 10 µM (UO-31): 36.7% | inhibition of growth at 10 µM (NCI-H23): 7.38% | inhibition of growth at 10 µM (SR): 11.3% | inhibition of growth at 10 µM (HOP-92): 67.2% | inhibition of growth at 10 µM (SF-539): 17.5% | IC50 (MCF7 [1]): > 100 µM | inhibition of growth at 10 µM (MDA-MB-231 [5]): 6.75% | inhibition of growth at 10 µM (SN12C): 5.02% | Ki (Carbonic anhydrase 9): 0.0887 µM | inhibition of growth at 10 µM (NCI-H226): 12.7% | inhibition of growth at 10 µM (CAKI-1): 20% | IC50 (MDA-MB-231 [2]): > 100 µM | inhibition of growth at 10 µM (MCF7 [4]): 7.76% | inhibition of growth at 10 µM (HCT-15): 5.65% | inhibition of growth at 10 µM (K562): 6.32% | inhibition of growth at 10 µM (T47D [6]): 6.01% | inhibition of growth at 10 µM (HCT-116): 8.06% | IC50 (T47D [3]): 60 µM | inhibition of growth at 10 µM (PC-3): 13.4% | inhibition of growth at 10 µM (LOX IMVI): 11.8% | inhibition of growth at 10 µM (MOLT-4): 9.7%

Continued, in another order:

Ki (Carbonic anhydrase 1): > 20 µM | Ki (Carbonic anhydrase 9): 0.0915 µM | Ki (Carbonic anhydrase 2): > 20 µM
SMILES: COc1ccc(C(=O)CSc2nc(Nc3ccc(S(N)(=O)=O)cc3)cc(-c3ccccc3)n2)cc1
inhibition of growth at 10 µM (CCRF-CEM): 11% | inhibition of growth at 10 µM (UO-31): 13% | inhibition of growth at 10 µM (SR): 27% | inhibition of growth at 10 µM (HL-60): 15% | inhibition of growth at 10 µM (CAKI-1): 12.6% | inhibition of growth at 10 µM (UACC-62): 13.2% | inhibition of growth at 10 µM (HCT-15): 9.43% | inhibition of growth at 10 µM (K562): 46.3% | inhibition of growth at 10 µM (ACHN): 28% | inhibition of growth at 10 µM (NCI-H460): 26.9% | inhibition of growth at 10 µM (A498): 19.8% | inhibition of growth at 10 µM (SW-620): 13.9% | inhibition of growth at 10 µM (LOX IMVI): 26.1% | inhibition of growth at 10 µM (MOLT-4): 22.1% | inhibition of growth at 10 µM (SNB-75): 10.4%

IC50 (MCF7 [1]): 44.5 µM | Ki (Carbonic anhydrase 9): 0.0858 µM | IC50 (MDA-MB-231 [2]): 26 µM | IC50 (T47D [3]): 44.4 µM
SMILES: NS(=O)(=O)c1ccc(Nc2cc(-c3ccccc3)nc(SCC(=O)c3ccccc3)n2)cc1

Ki (Carbonic anhydrase 9): 0.878 µM
SMILES: COc1ccc(C(=O)CSc2nc(Nc3cccc(S(N)(=O)=O)c3)c(C#N)c(-c3ccc(C)cc3)n2)cc1
